Reference: PMC6383986, “Fragment-Based Covalent Ligand Screening Enables Rapid Discovery of Inhibitors for the RBR E3 Ubiquitin Ligase HOIP” (Journal of the American Chemical Society, 2019)

Tested on: E1, UbcH5c, UbcH7, HOIL-1L, RNF144A, HHARI, TRIAD3A RBR domains, NEDD4L, E6AP, OTULIN, CYLD-1
Test: LC-MS-based enzyme counter screen
Format: binding
Details: 10-fold stoichiometric excess, 24 h incubation
Method: 0.1% formic acid in water. The samples were analyzed on a Q Exactive MS (Thermo Fisher) coupled to an Easy-nLC chromatographic system (Thermo Fisher) with a nano ESI source (Thermo Fisher). Each sample (2 µL) was injected and trapped on a C18 Acclaim pepMap 100 enrichment column (75 µm id × 2 cm, 3 µm nanoviper, Thermo Fisher). The samples were transferred to a C18 Acclaim PepMap RSLC analytical column (75 µm id × 15 cm, 2 µm, Thermo Fisher) at 300 nL/min. Mobile phase A (0.1% Formic acid in water, v/v); mobile phase B (0.1% […]
min (70-95% B), 56-61 min (95% B). The nanospray ionisation source was operated in the positive mode with spray voltage set at 2 kV, and heated capillary at 250 °C. The Q Exactive was operated in the data dependent mode and the top 15 most intense ions were subjected to HCD fragmentation with normalised collision energy set at 26%. The MS1 scans were performed at a resolution of 70 000 from 400-1600 m/z, automatic gain control (AGC) value 3 e6, maximum injection time 100 ms. […]
Compounds (1) and (5) were screened against E1, the E2s UbcH5c and UbcH7, the RBR domains of the E3 ligases HOIP, HOIL-1L, RNF144A, HHARI and TRIAD3A, the HECT E3 ligases NEDD4L and E6AP, and the DUBs OTULIN and CYLD-1. […] The samples were analyzed after 0.5 and 24 h incubation. […]

COC(=O)/C=C/CNC(=O)c1cc2c([nH]c1=O)CCC2 [Compound 5]
labeling of all other proteins screened: < 40%
